One experiment concerns MCF7. Put plainly: Antiproliferative activity against human MCF7 cells after 72 hrs by MTS assay. The following applies: MCF7, 72 h. In general terms: Formazan colour is commonly taken as a measure of viable cells.
The subject of a further experiment is HCT-116. Kind of experiment: cells. The note with it: Homo sapiens, HCT-116, 72 h.
Another experiment has as its system A549. Kind of experiment: cells. The note with it: Homo sapiens, A549, 72 h.
In experiment [1] the target is RAC-alpha serine/threonine-protein kinase (Homo sapiens) (UniProt P31749). Kind of experiment: Inhibition of AKT1 at 3 uM.
In experiment [2] the target is T1, Casein kinase II subunit alpha' (Homo sapiens, UniProt P19784). Put plainly: Competitive inhibition of GST fused human CK2alpha' expressed in Escherichia coli BL21 after 10 mins in presence of ATP.
For experiment [3], the target named is T2, Casein kinase II subunit alpha (Homo sapiens, UniProt P68400). Kind of experiment: Competitive inhibition of GST fused human CK2alpha expressed in Escherichia coli BL21 after 10 mins in presence of ATP.
In experiment [4] the target is Dual specificity tyrosine-phosphorylation-regulated kinase 1B (Homo sapiens) (UniProt Q9Y463). Put plainly: Inhibition of DYRK1B at 0.3 uM.
For experiment [5], the target named is T1, Casein kinase II subunit alpha'. Kind of experiment: Inhibition of GST fused human CK2alpha' expressed in Escherichia coli BL21 at 0.3 uM.
Experiment [6] concerns the target Cyclin-dependent kinase 6 (Homo sapiens) (UniProt Q00534). Kind of experiment: Inhibition of CDK6 at 3 uM.
Experiment [7] addresses T2, Casein kinase II subunit alpha. Kind of experiment: Inhibition of GST fused human CK2alpha expressed in Escherichia coli BL21 at 0.3 uM.
Experiment [8] concerns the target Receptor-type tyrosine-protein kinase FLT3 (Homo sapiens) (UniProt P36888). Put plainly: Inhibition of FLT3 at 0.3 uM.

pIC50: −log10 of the molar value. Bounds are passed on as bounds.

On to `COc1ccc(C(=O)Nc2cc(-c3ccc(C(=O)O)cc3)[nH]n2)cc1`, for which the negative logarithm of the IC50 (pIC50) with MCF7, with HCT-116 and with A549 was under 4.52 each time.

For the compound `O=C(O)c1ccc2c(c1)nc(Nc1cccc(Cl)c1)c1ccncc12` [SILMITASERTIB], the negative logarithm of the IC50 (pIC50) (commonly −log10 of the IC50, conventionally taken in molar units) with MCF7 is 5.19; in the experiment on HCT-116, 5.28; in the experiment on A549, 5.09.

Consider `O=C(O)Cc1ccn(-c2cncc(-n3ncc4ccc(NC5CCCC5)cc43)n2)c1`, for which the negative logarithm of the IC50 (pIC50) was 4.12 with MCF7, 4.62 in the experiment with HCT-116 and 4.44 in the experiment with A549.

As to `COc1ccc(C(=O)Nc2ncc(-c3ccc(C(=O)O)cc3)s2)cc1`, the inhibition (in general, the relative decrease from the control value, in per cent) in experiment [1] was 0.8%; in experiment [4], 82%; in experiment [5], over 100%; in experiment [6] it was 32%; in experiment [7] it was 84%; in experiment [8] it was 76%. Further, the negative logarithm of the IC50 (pIC50) was 7.34 in experiment [2]; 7.49 in experiment [3]; 5.62 in the experiment with MCF7; 5.80 in the experiment on HCT-116; 5.59 in the experiment on A549.

For the compound `COc1ccc(C(=O)Nc2nnc(-c3ccc(C(=O)O)cc3)s2)cc1`, the pIC50 in the experiment with MCF7, in the experiment with HCT-116 and in the experiment with A549 was under 4.52 throughout.

Source of the values: ChEMBL document CHEMBL2086313, “Structure-based design of novel potent protein kinase CK2 (CK2) inhibitors with phenyl-azole scaffolds” (J Med Chem, 2012).
